Measurements: patent US11066409B2, “Bicyclic nitrogen-containing heterocyclic derivatives and pharmaceutical composition comprising the same” (Shionogi & Co., Ltd., priority 2016, dated 2021)

Experiments:
human P2X7 receptor = human P2X7 receptor (Homo sapiens (Human), UniProt Q99572, R270H); experiment: Evaluation of a human P2X7 receptor inhibitory activity (Yo-Pro uptake, BzATP stimulation, FLIPR TETRA); format: cell-based; settings: 1321N1 cells stably expressing human P2X7 receptor, Yo-Pro fluorescence
Sequence of human P2X7 receptor (Q99572 whole entry R270H): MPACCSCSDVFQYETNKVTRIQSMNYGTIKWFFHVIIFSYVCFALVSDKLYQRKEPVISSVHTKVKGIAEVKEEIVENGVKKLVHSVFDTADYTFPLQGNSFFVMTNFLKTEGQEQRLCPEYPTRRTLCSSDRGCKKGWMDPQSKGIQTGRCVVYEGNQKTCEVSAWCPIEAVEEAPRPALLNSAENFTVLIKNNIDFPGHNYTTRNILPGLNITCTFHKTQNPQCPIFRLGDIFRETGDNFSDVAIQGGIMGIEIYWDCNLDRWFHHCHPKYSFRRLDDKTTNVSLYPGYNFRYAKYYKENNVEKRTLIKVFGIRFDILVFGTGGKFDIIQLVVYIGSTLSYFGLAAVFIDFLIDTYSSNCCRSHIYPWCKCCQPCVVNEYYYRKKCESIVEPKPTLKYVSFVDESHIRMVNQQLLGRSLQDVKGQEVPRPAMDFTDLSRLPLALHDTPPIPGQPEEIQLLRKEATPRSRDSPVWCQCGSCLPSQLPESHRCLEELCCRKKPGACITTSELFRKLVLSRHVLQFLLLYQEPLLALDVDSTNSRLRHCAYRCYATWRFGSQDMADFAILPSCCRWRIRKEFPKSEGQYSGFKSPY
Method in brief: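 1321N1 cells stably expressing human P2X7 (T606C/G952A SNP variant) in HBSS/HEPES pH 7.4–7.5 were loaded with Yo-Pro and stimulated with BzATP on FLIPR TETRA. Compound was added 8 min later and fluorescence followed for 20 min. Inhibition scaled between no-compound (0%) and reference compound (100%); IC50 by logistic fit, reported in bins A–D.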

[1] = test system: partial sciatic nerve ligation model in rats; experiment: Analgesic effect in a Seltzer model (partial sciatic nerve ligation), mechanical allodynia by von Frey filaments; format: in vivo; settings: 1 h, rat, oral, reversal of mechanical allodynia, approximately 1 to 5 hours after administration
Source text: Preparation of Partial Sciatic Nerve Ligation Model in Rats
Rats were anaesthetized using isoflurane/O2 inhalation anaesthesia. After induction of anesthesia, the left thigh was shaved. An incision was made in the skin just below the hip bone. The muscle was bluntly dissected to expose the sciatic nerve. About one half (½) of the sciatic nerve thickness was tightly ligated with a nylon thread and the wound was closed. The right thigh was used as a sham-operated control. The right thigh underwent an identical procedure with the left hind limb, however, the sciatic nerve was not manipulated or ligated.
Two weeks after nerve ligation, the effect on mechanical allodynia was assessed using a series of von Frey filaments. For habituation, the rats were placed into a plastic cage on a wire mesh bottom. Von Frey filaments (0.4 to 26 g) were applied to the plantar surface of the rat hind paws from the wire mesh side, and the value of the filament pressure at which the paw was withdrawn was used as a pain threshold. The measurement of mechanical sensitivity of the right and left hind paws was performed to obtain predose mechanical sensitivity. The rats showing the threshold change from 0.6 to 2 g (in nerve ligated side) and 8 to 15 g (in sham operated side) were used in the experiments. On the day before the experiment, the rats were evaluated with a series of von Frey filaments to familiarize them with the test procedure. The adopted animal was administrated with the compounds of the present invention. The compounds of the present invention were homogenized with mortar and pestle and suspended or diluted in 0.5% Methyl Cellulose to prepare 0.03-100 mg/2 mL/kg suspension and orally administered to rat using a syringe attached with a sonde. Post-dose mechanical sensitivities of the right and left hind paws were measured at approximately 1 to 5 hours after drug administration. Percent reversal of mechanical allodynia for each rat was calculated using the following formula. The analgesic effects of the compounds were compared.

human PXR = human PXR (Homo sapiens (Human), UniProt O75469); experiment: Evaluation of activation of human pregnane X receptor (PXR), DPX2 cells; format: cell-based; settings: 48 hours, emission intensity divided by fluorescence intensity; for PXR 10 μM: compound 10 μM; for PXR 50 μM: compound 50 μM
Sequence of human PXR (O75469 whole entry): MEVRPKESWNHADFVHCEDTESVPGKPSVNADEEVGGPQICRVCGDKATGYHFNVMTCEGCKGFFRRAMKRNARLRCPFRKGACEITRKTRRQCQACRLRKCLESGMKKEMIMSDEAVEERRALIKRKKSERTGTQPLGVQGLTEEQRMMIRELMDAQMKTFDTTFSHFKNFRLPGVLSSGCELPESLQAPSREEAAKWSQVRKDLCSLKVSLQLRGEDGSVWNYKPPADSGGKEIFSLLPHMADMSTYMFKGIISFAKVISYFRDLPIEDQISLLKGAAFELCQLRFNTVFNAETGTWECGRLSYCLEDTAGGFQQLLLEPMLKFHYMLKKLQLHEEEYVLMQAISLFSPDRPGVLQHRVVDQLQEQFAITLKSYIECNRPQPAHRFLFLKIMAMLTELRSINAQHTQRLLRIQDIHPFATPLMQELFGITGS
Description: A Human PXR activation (Puracyp, Inc.) kit was used for evaluation.
DPX2 cells expressing human PXR were seeded in a 96-well plate at a concentration of 40000 cells/well and cultured at 37° C. under 5% carbon dioxide for 24 hours (medium: culture medium for DPX2 cells containing 10% fetal bovine serum, antibiotics, sodium pyruvate, D-glucose, and phenol red). After culture for 24 hours, a DMSO solution of the compound of the present invention was diluted with a medium (dosing medium for DPX2 cells containing 10% fetal bovine serum, D-glucose, antibiotics, sodium pyruvate, and L-glutamine) so that the final concentration was 10 and 50 μM, and a rifampicin DMSO solution as a positive control drug was 0.2, 1, 2, and 20 μM. The medium was removed from the 96-well plate after culture for 24 hours. 100 μL of the solution of the compound of the present invention and 100 μL of the rifampicin solution prepared were added to each well, and cultured for 48 hours. The medium was removed from the 96-well plate after culture for 48 hours. 100 μL of each reaction mixture obtained by adding 5.25 μL of CellTiter-Fluor to 10.5 mL of TubeE was filled therein. The plate was set in a plate reader (PerkinElmer, Inc.) after culture for 1 hour to measure the fluorescence intensity at an interval of 0.1 seconds per well. The plate was taken out. 100 μL of a solution obtained by adding ONE-Glo Assay Substrate to ONE-Glo Assaybuffer was added to each well. After 2 minutes from the addition of the solution, the plate was set in the plate reader to measure the […] at an interval of 2 seconds per well. The PXR activity of the product of the present invention was a value obtained by dividing the emission intensity by the fluorescence intensity.

Compound | PXR 10 μM (human PXR) | PXR 50 μM (human PXR) | IC50 (human P2X7 receptor; class symbols) [nM] | other results
Cc1cc2c(cc1Nc1nc(=O)c(F)c3n1C(c1cc(F)cc(F)c1)CC3)COC2 (stereo not drawn) [Compound I-0102] | – | – | – | IC50 (human P2X7 receptor): 11 nM; inhibition in vivo at 3 mg/kg [1]: 55%
COc1ccc(NC2=NC(=O)N(C)C3=NCC(c4cc(F)c(F)c(F)c4)N23)c(C)c1 (stereo not drawn) [Compound I-0135] | 3 | 9 | 10 to 100 | inhibition in vivo at 3 mg/kg [1]: 52%
COc1ccc(C)c(NC2=NC(=O)N(C)C3=NCC(c4cc(F)c(F)c(F)c4)N23)c1 (stereo not drawn) [Compound I-0142] | 5.8 | 13 | 10 to 100 | –
Cc1ccc(C#N)cc1NC1=NC(=O)N(C)C2=NCC(c3cc(F)c(F)c(F)c3)N12 (stereo not drawn) [Compound I-0145] | 1.9 | 6.2 | 10 to 100 | IC50 (human P2X7 receptor): 19 nM; inhibition in vivo at 1 mg/kg [1]: 58%
COc1ccc(NC2=NC(=O)N(C)C3=NCC(c4cc(F)c(F)c(F)c4)N23)c(C)c1F (stereo not drawn) [Compound I-0147] | – | – | 10 to 100 | IC50 (human P2X7 receptor): 24 nM; inhibition in vivo at 1 mg/kg [1]: 33%
COc1cc(NC2=NC(=O)N(C)C3=NCC(c4cc(F)c(F)c(F)c4)N23)c(C)cc1F (stereo not drawn) [Compound I-0149] | – | – | – | IC50 (human P2X7 receptor): 21 nM; inhibition in vivo at 1 mg/kg [1]: 41%
CCc1nc(OC)ccc1NC1=NC(=O)N(C)C2=NCC(c3cc(F)c(F)c(F)c3)N12 (stereo not drawn) [Compound I-0154] | 7.9 | 15.8 | – | IC50 (human P2X7 receptor): 17 nM; inhibition in vivo at 1 mg/kg [1]: 44%
COCCOc1ccc(C)c(NC2=NC(=O)N(C)C3=NCC(c4cc(F)c(F)c(F)c4)N23)c1 (stereo not drawn) [Compound I-0158] | 1.2 | 4.7 | – | IC50 (human P2X7 receptor): 27 nM; inhibition in vivo at 1 mg/kg [1]: 47%
Cc1ccc(CO)cc1NC1=NC(=O)N(C)C2=NCC(c3cc(F)c(F)c(F)c3)N12 (stereo not drawn) [Compound I-0161] | 1.2 | 2.5 | – | IC50 (human P2X7 receptor): 19 nM; inhibition in vivo at 1 mg/kg [1]: 51%
COc1nc(C)c(NC2=NC(=O)N(C)C3=NCC(c4cc(F)c(F)c(F)c4)N23)cc1F (stereo not drawn) [Compound I-0162] | 6.7 | 20 | – | IC50 (human P2X7 receptor): 19 nM
Cc1cc2c(cc1NC1=NC(=O)N(C)C3=NCC(c4cc(F)c(F)c(F)c4)N13)COC2 (stereo not drawn) [Compound I-0164] | 10.6 | 25 | – | IC50 (human P2X7 receptor): 28 nM; inhibition in vivo at 1 mg/kg [1]: 47%
Cc1cc(F)c(CO)cc1NC1=NC(=O)N(C)C2=NCC(c3cc(F)c(F)c(F)c3)N12 (stereo not drawn) [Compound I-0168] | 0.9 | 1.7 | – | inhibition in vivo at 1 mg/kg [1]: 53%
Cc1ccc(OCCO)cc1NC1=NC(=O)N(C)C2=NCC(c3cc(F)c(F)c(F)c3)N12 (stereo not drawn) [Compound I-0171] | 1.2 | 2.5 | – | inhibition in vivo at 1 mg/kg [1]: 52%
CCc1ccc(CO)cc1NC1=NC(=O)N(C)C2=NCC(c3cc(F)c(F)c(F)c3)N12 (stereo not drawn) [Compound I-0176] | 1.1 | 2 | – | IC50 (human P2X7 receptor): 20 nM
Cc1ccc(O[C@H]2C[C@@H](CO)C2)cc1NC1=NC(=O)N(C)C2=NCC(c3cc(F)c(F)c(F)c3)N12 (stereo partly drawn) [Compound I-0185] | – | – | 10 to 100 | –
Cc1ccc(O[C@H]2C[C@H](CO)C2)cc1NC1=NC(=O)N(C)C2=NCC(c3cc(F)c(F)c(F)c3)N12 (stereo partly drawn) [Compound I-0186] | – | – | 10 to 100 | –
Cc1cc2cnn(CCO)c2cc1NC1=NC(=O)N(C)C2=NCC(c3cc(F)c(F)c(F)c3)N12 (stereo not drawn) [Compound I-0187] | – | – | 10 to 100 | –
CN1C(=O)N=C(NCc2ccccc2)N2C1=NCC2c1cc(F)c(F)c(F)c1 (stereo not drawn) [Compound I-0188] | 1.3 | 3.5 | – | IC50 (human P2X7 receptor): 7.6 nM
Cc1ccc(C#N)cc1NC1=NC(=O)N(CCO)C2=NCC(c3cc(F)c(F)c(F)c3)N12 (stereo not drawn) [Compound I-0189] | – | – | 10 to 100 | –
Cc1ccc(OC[C@H]2C[C@H](O)C2)cc1NC1=NC(=O)N(C)C2=NCC(c3cc(F)c(F)c(F)c3)N12 (stereo partly drawn) [Compound I-0190] | – | – | 10 to 100 | –
Cc1ccc(C=O)cc1NC1=NC(=O)N(C)C2=NCC(c3cc(F)c(F)c(F)c3)N12 (stereo not drawn) [Compound I-0191] | – | – | 10 to 100 | –
Cc1ccc(OC(F)F)cc1NC1=NC(=O)N(C)C2=NCC(c3cc(F)c(F)c(F)c3)N12 (stereo not drawn) [Compound I-0192] | 7.9 | 15 | – | IC50 (human P2X7 receptor): 18 nM; inhibition in vivo at 1 mg/kg [1]: 50%

Compound | PXR 10 μM (human PXR) | PXR 50 μM (human PXR) | IC50 (human P2X7 receptor; class symbols) [nM] | other results
Cc1ccc(Oc2ccccn2)cc1NC1=NC(=O)N(C)C2=NCC(c3cc(F)c(F)c(F)c3)N12 (stereo not drawn) [Compound I-0193] | – | – | 10 to 100 | –
Cc1ccc(CCO)cc1NC1=NC(=O)N(C)C2=NCC(c3cc(F)c(F)c(F)c3)N12 (stereo not drawn) [Compound I-0194] | – | – | 10 to 100 | –
Cc1ccc(CO)cc1NC1=NC(=O)N(C)C2=NCC(c3cc(F)nc(F)c3)N12 (stereo not drawn) [Compound I-0195] | – | – | 10 to 100 | –
CN1C(=O)N=C(NCc2ccccc2F)N2C1=NCC2c1cc(F)c(F)c(F)c1 (stereo not drawn) [Compound I-0196] | – | – | 10 to 100 | –
CN1C(=O)N=C(NCc2cccc(F)c2)N2C1=NCC2c1cc(F)c(F)c(F)c1 (stereo not drawn) [Compound I-0197] | – | – | 10 to 100 | –
CN1C(=O)N=C(NCc2ccc(F)cc2)N2C1=NCC2c1cc(F)c(F)c(F)c1 (stereo not drawn) [Compound I-0198] | – | – | 10 to 100 | –
Cc1ccc(OCCS(C)(=O)=O)cc1NC1=NC(=O)N(C)C2=NCC(c3cc(F)c(F)c(F)c3)N12 (stereo not drawn) [Compound I-0199] | – | – | 10 to 100 | –
Cc1ccc(OCC#N)cc1NC1=NC(=O)N(C)C2=NCC(c3cc(F)c(F)c(F)c3)N12 (stereo not drawn) [Compound I-0200] | – | – | 10 to 100 | –
COCCc1ccc(C)c(NC2=NC(=O)N(C)C3=NCC(c4cc(F)c(F)c(F)c4)N23)c1 (stereo not drawn) [Compound I-0202] | – | – | 10 to 100 | –
COCC(F)(F)Oc1ccc(C)c(NC2=NC(=O)N(C)C3=NCC(c4cc(F)c(F)c(F)c4)N23)c1 (stereo not drawn) [Compound I-0203] | – | – | 10 to 100 | –
Cc1ccc(OC(F)(F)CO)cc1NC1=NC(=O)N(C)C2=NCC(c3cc(F)c(F)c(F)c3)N12 (stereo not drawn) [Compound I-0204] | – | – | 10 to 100 | –
COCC(F)(F)c1ccc(C)c(NC2=NC(=O)N(C)C3=NCC(c4cc(F)c(F)c(F)c4)N23)c1 (stereo not drawn) [Compound I-0205] | – | – | 10 to 100 | –
Cc1ccc(C(F)(F)CO)cc1NC1=NC(=O)N(C)C2=NCC(c3cc(F)c(F)c(F)c3)N12 (stereo not drawn) [Compound I-0206] | – | – | 10 to 100 | –
COc1ccc([C@@H](C)NC2=NC(=O)N(C)C3=NCC(c4cc(F)c(F)c(F)c4)N23)cc1 (stereo partly drawn) [Compound I-0207] | – | – | 100 to 500 | –
Cc1cc(C#N)ccc1NC1=NC(=O)N(C)C2=NCC(c3cc(F)c(F)c(F)c3)N12 (stereo not drawn) [Compound I-0208] | – | – | 10 to 100 | –
COc1cc(NC2=NC(=O)N(C)C3=NCC(c4cc(F)c(F)c(F)c4)N23)c(C)cc1C#N (stereo not drawn) [Compound I-0209] | – | – | 10 to 100 | –
CN1C(=O)N=C(Nc2cc(C#N)ccc2F)N2C1=NCC2c1cc(F)c(F)c(F)c1 (stereo not drawn) [Compound I-0210] | – | – | 10 to 100 | –
Cc1cc(F)c(C#N)cc1NC1=NC(=O)N(C)C2=NCC(c3cc(F)c(F)c(F)c3)N12 (stereo not drawn) [Compound I-0211] | – | – | 10 to 100 | –
Cc1c(F)cc(C#N)cc1NC1=NC(=O)N(C)C2=NCC(c3cc(F)c(F)c(F)c3)N12 (stereo not drawn) [Compound I-0212] | – | – | 10 to 100 | –
Cc1ccc(C2=NCCO2)cc1NC1=NC(=O)N(C)C2=NCC(c3cc(F)c(F)c(F)c3)N12 (stereo not drawn) [Compound I-0213] | – | – | 10 to 100 | –
Cc1cc(F)c(C2=NCCO2)cc1NC1=NC(=O)N(C)C2=NCC(c3cc(F)c(F)c(F)c3)N12 (stereo not drawn) [Compound I-0214] | – | – | 10 to 100 | –
